Where a name gives a salt, the structure may show the parent alone. Read-outs that look alike come from different tables or passages of the source.
Biological target: T1, recombinant full-length USP7 (Homo sapiens, UniProt Q93009)
T1 construct: A 25 μl reaction volume containing recombinant full-length USP7 (62 pM)
Assay: USP7-mediated ubiquitin-rhodamine cleavage assay
Type: biochemical
Settings: recombinant full-length USP7 62 pM, ubiquitin-rhodamine 100 nM, 1 hour reaction at room temperature
How it was run: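 Full-length recombinant USP7 (62 pM) in 20 mM HEPES pH 7.3, 150 mM NaCl, 1 mM TCEP, 125 μg/ml BSA, 1% DMSO, preincubated with compound 30 min at RT. Ubiquitin-rhodamine (100 nM final) cleaved 1 h at RT in the dark, stopped with acetic acid; rhodamine fluorescence read, IC50 by 4-parameter nonlinear fit.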

[1] = 30-minute incubation with compound, read-out: Potency: USP7 IC50
[2] = 30-minute pre-incubation, read-out: Potency (USP7 IC50)
[3] = 30-minute incubation, read-out: Potency (USP7 IC50)

T1 sequence (Q93009 whole entry): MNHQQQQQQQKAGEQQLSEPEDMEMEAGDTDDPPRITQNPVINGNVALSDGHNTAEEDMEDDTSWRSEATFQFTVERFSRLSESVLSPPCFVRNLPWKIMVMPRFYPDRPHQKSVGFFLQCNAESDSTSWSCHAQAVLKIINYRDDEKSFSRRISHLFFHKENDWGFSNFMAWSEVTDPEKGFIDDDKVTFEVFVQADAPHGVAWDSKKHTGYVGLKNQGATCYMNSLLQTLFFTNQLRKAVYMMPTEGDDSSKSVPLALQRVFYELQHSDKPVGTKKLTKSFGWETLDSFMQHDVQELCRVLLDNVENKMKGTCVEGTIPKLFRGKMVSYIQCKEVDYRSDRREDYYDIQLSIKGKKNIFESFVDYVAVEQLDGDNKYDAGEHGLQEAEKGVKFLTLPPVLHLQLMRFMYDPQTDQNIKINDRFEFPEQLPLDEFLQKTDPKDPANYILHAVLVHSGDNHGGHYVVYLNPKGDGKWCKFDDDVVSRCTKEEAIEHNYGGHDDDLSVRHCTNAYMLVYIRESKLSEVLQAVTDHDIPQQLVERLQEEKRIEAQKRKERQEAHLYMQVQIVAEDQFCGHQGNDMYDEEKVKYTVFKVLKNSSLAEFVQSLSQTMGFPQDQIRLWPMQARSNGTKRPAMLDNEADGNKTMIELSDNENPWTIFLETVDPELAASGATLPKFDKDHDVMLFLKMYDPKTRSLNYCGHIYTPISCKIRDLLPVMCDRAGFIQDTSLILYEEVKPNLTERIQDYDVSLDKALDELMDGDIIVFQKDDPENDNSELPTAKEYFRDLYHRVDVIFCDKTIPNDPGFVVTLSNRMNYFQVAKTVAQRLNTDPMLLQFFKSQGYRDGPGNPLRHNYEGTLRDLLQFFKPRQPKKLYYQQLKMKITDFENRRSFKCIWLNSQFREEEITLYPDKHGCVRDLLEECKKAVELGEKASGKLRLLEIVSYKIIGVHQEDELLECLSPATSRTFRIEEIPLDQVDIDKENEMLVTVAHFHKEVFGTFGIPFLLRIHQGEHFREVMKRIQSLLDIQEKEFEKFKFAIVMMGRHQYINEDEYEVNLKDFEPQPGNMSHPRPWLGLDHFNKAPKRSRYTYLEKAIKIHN

| Compound | IC50 [1] [nM] | IC50 [2] [nM] | also measured |
| --- | --- | --- | --- |
| Cc1cc(Cl)cc(-c2ccnc3cc(CN4C(=O)CC5(CCCC5)CC4=O)sc23)c1OC1CCNCC1 [Example 236, 8-((7-(5-Chloro-3-methyl-2-(piperidin-4-yloxy)phenyl)thieno[3,2-b]pyridin-2-yl)methyl)-8-azaspiro[4.5]decane-7,9-dione] | < 1000 | – | – |
| Cc1cc(C(F)(F)F)cc(-c2ccnc3cc(Cn4c(=O)ccn(C)c4=O)sc23)c1O[C@@H]1CC[C@@H](N)C1 [Example 456, 3-[[7-[2-[(1R,3R)-3-aminocyclopentoxy]-3-methyl-5-(trifluoromethyl)phenyl]thieno[3,2-b]pyridin-2-yl]methyl]-1-methyl-pyrimidine-2,4-dione dihydrochloride] | – | < 1000 | – |
| Cc1cc(Cl)cc(-c2ccnc3cc(Cn4c(=O)ccn(CC(F)(F)F)c4=O)sc23)c1O[C@H]1CCCNCC1 [Example 656, 3-[[7-[2-[(4S)-azepan-4-yl]oxy-5-chloro-3-methyl-phenyl]thieno[3,2-b]pyridin-2-yl]methyl]-1-(2,2,2-trifluoroethyl)pyrimidine-2,4-dione; 2,2,2-trifluoroacetic acid] | – | < 1000 | – |
| Cc1cc(Cl)cc(-c2ccnc3cc(Cn4c(=O)ccn(CC(F)(F)F)c4=O)sc23)c1OC1CCNCC12CC2 (stereo not shown) [Example 617, 3-[[7-[2-(5-azaspiro[2.5]octan-8-yloxy)-5-chloro-3-methyl-phenyl]thieno[3,2-b]pyridin-2-yl]methyl]-1-(2,2,2-trifluoroethyl)pyrimidine-2,4-dione; 2,2,2-trifluoroacetic acid] | – | < 1000 | – |
| 2-((4-(5-Chloro-3-methyl-2-(piperidin-4-yloxy)phenyl)thieno[3,2-d]pyrimidin-6-yl)methyl)tetrahydrocyclopenta[c]pyrrole-1,3(2H,3aH)-dione [Example 178] | < 1000 | – | – |
| Cc1cc(Cl)cc(-c2ncnc3cc(CN4C(=O)C5C(C4=O)C5(C)C)sc23)c1O[C@H]1CCCN[C@@H]1C (stereo partly drawn) [Example 360, 3-[[4-[5-chloro-3-methyl-2-[[(2R,3S)-2-methyl-3-piperidyl]oxy]phenyl]thieno[3,2-d]pyrimidin-6-yl]methyl]-6,6-dimethyl-3-azabicyclo[3.1.0]hexane-2,4-dione] | < 1000 | – | – |
| Cc1cc(Cl)cc(-c2ccnc3cc(Cn4c(=O)ccn(CC(F)(F)F)c4=O)sc23)c1OC1CC2(COC2)C1 [Example 679, 3-[[7-[5-chloro-3-methyl-2-(2-oxaspiro[3.3]heptan-6-yloxy)phenyl]thieno[3,2-b]pyridin-2-yl]methyl]-1-(2,2,2-trifluoroethyl)pyrimidine-2,4-dione] | – | – | IC50 [3]: < 1000 nM |
| CCC(O)c1cc2ncnc(-c3cc(Cl)cc(C)c3O[C@@H]3CNC[C@@H]3F)c2s1 (stereo partly drawn) [Example 94, 1-(4-(5-Chloro-2-(((3R,4S)-4-fluoropyrrolidin-3-yl)oxy)-3-methylphenyl)thieno[3,2-d]pyrimidin-6-yl)propan-1-ol] | 1000 to 10000 | – | – |
| Cc1cc(Cl)cc(-c2ccnc3cc(Cn4c(=O)ccn(CC(F)(F)F)c4=O)sc23)c1OC1CCCC1 [Example 664, 3-[[7-[5-chloro-2-(cyclopentoxy)-3-methyl-phenyl]thieno[3,2-b]pyridin-2-yl]methyl]-1-(2,2,2-trifluoroethyl)pyrimidine-2,4-dione] | – | < 1000 | – |
| Cc1cc(Cl)cc(-c2ccnc3cc(CN4C(=O)COC4=O)sc23)c1O[C@H]1CCCNC1 [Example 330, 3-[[7-[5-chloro-3-methyl-2-[[(3S)-3-piperidyl]oxy]phenyl]thieno[3,2-b]pyridin-2-yl]methyl]oxazolidine-2,4-dione; 2,2,2-trifluoroacetic acid] | < 1000 | – | – |
| Cc1cc(Cl)cc(-c2ccnc3c(F)c(CO)sc23)c1O[C@@H]1CNC[C@@H]1F [Example 156, (7-(5-Chloro-2-(((3R,4S)-4-fluoropyrrolidin-3-yl)oxy)-3-methylphenyl)-3-fluorothieno[3,2-b]pyridin-2-yl)methanol] | 1000 to 10000 | – | – |
| Cc1cc(Cl)cc(-c2ccnc3cc(Cn4c(=O)ccn(C(C)C)c4=O)sc23)c1OC1CN2CCC1C2 [Example 590, 3-[[7-[2-[[(1S,3S,4R)-1-azabicyclo[2.2.1]heptan-3-yl]oxy]-5-chloro-3-methyl-phenyl]thieno[3,2-b]pyridin-2-yl]methyl]-1-isopropyl-pyrimidine-2,4-dione] | – | < 1000 | – |
| CO[C@H]1CNC[C@H]1Oc1c(C)cc(Cl)cc1-c1ccnc2cc(CN3C(=O)C4C(C3=O)C4(C)C)sc12 (stereo partly drawn) [Example 388, 3-[[7-[5-chloro-2-[(3R,4S)-4-methoxypyrrolidin-3-yl]oxy-3-methyl-phenyl]thieno[3,2-b]pyridin-2-yl]methyl]-6,6-dimethyl-3-azabicyclo[3.1.0]hexane-2,4-dione dihydrochloride] | < 1000 | – | – |
| Cc1cc([N+](=O)[O-])cc(-c2ccnc3cc(Cn4c(=O)ccn(CC(F)(F)F)c4=O)sc23)c1Oc1ccnn1C [Example 404, 3-[[7-[3-methyl-2-(2-methylpyrazol-3-yl)oxy-5-nitro-phenyl]thieno[3,2-b]pyridin-2-yl]methyl]-1-(2,2,2-trifluoroethyl)pyrimidine-2,4-dione; 2,2,2-trifluoroacetic acid] | – | < 1000 | – |
| Cc1cc(Cl)cc(-c2ccnc3cc(Cn4c(C(F)(F)F)cccc4=O)sc23)c1OC1CCNCC1 [Example 227, 1-((7-(5-Chloro-3-methyl-2-(piperidin-4-yloxy)phenyl)thieno[3,2-b]pyridin-2-yl)methyl)-6-(trifluoromethyl)pyridin-2(1H)-one] | 10000 to 30000 | – | – |
| CCN1CC[C@@H](Oc2c(C)cc(Cl)cc2-c2ccnc3cc(Cn4c(=O)ccn(CC(F)(F)F)c4=O)sc23)[C@@H](C)C1 [Example 690, 3-[[7-[5-chloro-2-[[(3S,4R)-1-ethyl-3-methyl-4-piperidyl]oxy]-3-methyl-phenyl]thieno[3,2-b]pyridin-2-yl]methyl]-1-(2,2,2-trifluoroethyl)pyrimidine-2,4-dione] | – | – | IC50 [3]: < 1000 nM |
| Cc1cc(Cl)cc(-c2ccnc3cc(Cn4c(=O)ccn(CC(F)(F)F)c4=O)sc23)c1OCCN1CCC1 [Example 701, 3-[[7-[2-[2-(azetidin-1-yl)ethoxy]-5-chloro-3-methyl-phenyl]thieno[3,2-b]pyridin-2-yl]methyl]-1-(2,2,2-trifluoroethyl)pyrimidine-2,4-dione; 2,2,2-trifluoroacetic acid] | – | – | IC50 [3]: < 1000 nM |
| O=C1CCC(=O)N1Cc1cc2nccc(-c3cc(Cl)ccc3O[C@@H]3CNC[C@@H]3F)c2s1 [Example 119, 1-((7-(5-Chloro-2-(((3R,4S)-4-fluoropyrrolidin-3-yl)oxy)phenyl)thieno[3,2-b]pyridin-2-yl)methyl)pyrrolidine-2,5-dione] | 1000 to 10000 | – | – |
| Cc1cc(Cl)cc(-c2ccnc3cc(CN4C(=O)C5CCCCC5C4=O)sc23)c1OC1CCNCC1 (stereo not shown) [Example 217] | 1000 to 10000 | – | – |
| Cc1cc(Cl)cc(-c2ccnc3cc(Cn4c(=O)ccn(C(C)C)c4=O)sc23)c1O[C@@H]1CNC[C@@H]1F [Example 451, 3-[[7-[5-chloro-2-[(3R,4S)-4-fluoropyrrolidin-3-yl]oxy-3-methyl-phenyl]thieno[3,2-b]pyridin-2-yl]methyl]-1-isopropyl-pyrimidine-2,4-dione] | – | < 1000 | – |
| Cc1cc(Cl)cc(-c2ccnc3cc(CN4C(=O)CCC4=O)sc23)c1OC1CC2(CCN2)C1 (stereo not shown) [Example 464, 1-[[7-[2-(1-azaspiro[3.3]heptan-6-yloxy)-5-chloro-3-methyl-phenyl]thieno[3,2-b]pyridin-2-yl]methyl]pyrrolidine-2,5-dione; 2,2,2-trifluoroacetic acid] | – | < 1000 | – |
| Cc1cc(C#N)cc(-c2ncnc3cc(CO)sc23)c1O[C@H]1CCCNC1 [Example 183, (S)-3-(6-(Hydroxymethyl)thieno[3,2-d]pyrimidin-4-yl)-5-methyl-4-(piperidin-3-yloxy)benzonitrile] | 1000 to 10000 | – | – |
| Cc1cc(Cl)cc(-c2ccnc3cc(Cn4c(=O)[nH]cc(F)c4=O)sc23)c1O[C@H]1CCCNC1 [Example 420, 3-[[7-[5-chloro-3-methyl-2-[[(3S)-3-piperidyl]oxy]phenyl]thieno[3,2-b]pyridin-2-yl]methyl]-5-fluoro-1H-pyrimidine-2,4-dione] | – | < 1000 | – |
| Cc1cc(Cl)cc(-c2ncnc3cc(CN4C(=O)C5C(C4=O)C5(C)C)sc23)c1O[C@H]1CC[C@H](C)NC1 (stereo partly drawn) [Example 339, 3-[[4-[5-chloro-3-methyl-2-[[(3S,6S)-6-methyl-3-piperidyl]oxy]phenyl]thieno[3,2-d]pyrimidin-6-yl]methyl]-6,6-dimethyl-3-azabicyclo[3.1.0]hexane-2,4-dione dihydrochloride] | < 1000 | – | – |
| CN[C@@H]1CC[C@@H](Oc2c(C)cc(Cl)cc2-c2ccnc3cc(CN4C(=O)CCC4=O)sc23)C1 [Example 53, 1-((7-(5-Chloro-3-methyl-2-(((1R,3R)-3-(methylamino)cyclopentyl)oxy)phenyl)thieno[3,2-b]pyridin-2-yl)methyl)pyrrolidine-2,5-dione] | < 1000 | – | – |
| Cc1cc(Cl)cc(-c2ccnc3ccsc23)c1OCC1(C)CNC1 [Example 45, 7-(5-Chloro-3-methyl-2-((3-methylazetidin-3-yl)methoxy)phenyl)thieno[3,2-b]pyridine] | < 1000 | – | – |
| Cc1cc(Cl)cc(-c2ccnc3cc(Cn4c(=O)ccn(CC(F)(F)F)c4=O)sc23)c1OC1CCC1 [Example 683, 3-[[7-[5-chloro-2-(cyclobutoxy)-3-methyl-phenyl]thieno[3,2-b]pyridin-2-yl]methyl]-1-(2,2,2-trifluoroethyl)pyrimidine-2,4-dione] | – | – | IC50 [3]: < 1000 nM |
| Cc1cc(Cl)cc(-c2ccnc3cc(CO)sc23)c1OCC1CCCNC1 (stereo not shown) [Example 189, (7-(5-Chloro-3-methyl-2-(piperidin-3-ylmethoxy)phenyl)thieno[3,2-b]pyridin-2-yl)methanol] | 10000 to 30000 | – | – |
